Data from US9604964B2, “Dihydropyrazole GPR40 modulators” (BRISTOL-MYERS SQUIBB COMPANY, priority 2012, dated 2017).

Target: human GPR40 (Homo sapiens, UniProt O14842)
Test: FDSS-based intracellular calcium assay (Human GPR40 in vitro assay)
Assay type: cell-based
Set-up: 3xFLAG; expressed in transfected cells
Details: intracellular Ca2+ response, cells expressing GPR40; read-out: hGPR40 EC50
Description: FDSS-based Intracellular Calcium Assay
Compounds are dissolved in DMSO and diluted to desired concentrations with assay buffer and added to the cells as 3× solution (20 μL per well). Run fluorescence/luminescence reader FDSS (Hamamatsu) to read intracellular Ca^2+ response.

human GPR40, sequence (O14842 whole entry): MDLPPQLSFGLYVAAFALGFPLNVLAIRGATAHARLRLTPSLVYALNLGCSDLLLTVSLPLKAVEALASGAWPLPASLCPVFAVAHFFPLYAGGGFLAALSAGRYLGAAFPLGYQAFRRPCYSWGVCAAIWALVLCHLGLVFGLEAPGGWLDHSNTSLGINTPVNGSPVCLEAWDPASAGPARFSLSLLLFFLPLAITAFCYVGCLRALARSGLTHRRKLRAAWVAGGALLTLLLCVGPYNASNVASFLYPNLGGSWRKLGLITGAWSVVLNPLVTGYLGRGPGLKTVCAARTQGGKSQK

EC50 [nM]	Compound
1690	C[C@@H]1C(C(F)(F)F)=NN(c2ccc(OC3CCN(c4nccs4)CC3)cc2)[C@H]1CC(=O)O [Example 13, 2-((4S,5S)-4-methyl-1-(4-((1-(thiazol-2-yl)piperidin-4-yl)oxy)phenyl)-3-(trifluoromethyl)-4,5-dihydro-1H-pyrazol-5-yl)acetic acid]
4270	C[C@@H]1C(C(F)(F)F)=NN(c2ccc(OC3CCN(C(=O)OCc4ccccc4)CC3)cc2)[C@H]1CC(=O)O [Example 14, 2-((4S,5S)-1-(4-((1-((benzyloxy)carbonyl)piperidin-4-yl)oxy)phenyl)-4-methyl-3-(trifluoromethyl)-4,5-dihydro-1H-pyrazol-5-yl)acetic acid]
4820	C[C@@H]1C(C(F)(F)F)=NN(c2ccc(OC3CCN(c4cc(OC5CCCC5)cc(F)c4F)CC3)cc2)[C@H]1CC(=O)O [Example 19, 2-((4S,5S)-1-(4-((1-(5-(cyclopentyloxy)-2,3-difluorophenyl)piperidin-4-yl)oxy)phenyl)-4-methyl-3-(trifluoromethyl)-4,5-dihydro-1H-pyrazol-5-yl)acetic acid]
1420	C[C@@H]1C(C(F)(F)F)=NN(c2ccc(OC3CCN(c4nccc(C(F)(F)F)n4)CC3)cc2)[C@H]1CC(=O)O [Example 20, 2-((4S,5S)-4-methyl-3-(trifluoromethyl)-1-(4-((1-(4-(trifluoromethyl)pyrimidin-2-yl)piperidin-4-yl)oxy)phenyl)-4,5-dihydro-1H-pyrazol-5-yl)acetic acid]
3020	COc1ccc(F)c(N2CCCC(Oc3ccc(N4N=C(C(F)(F)F)[C@@H](C)[C@@H]4CC(=O)O)cc3)CC2)c1 (stereo partly drawn) [Example 23, 2-((4S,5S)-1-(4-((1-(2-fluoro-5-methoxyphenyl)azepan-4-yl)oxy)phenyl)-4-methyl-3-(trifluoromethyl)-4,5-dihydro-1H-pyrazol-5-yl)acetic acid]
4200	COc1cncc(N2CCC(Oc3ccc(N4N=C(C(F)(F)F)[C@@H](C)[C@@H]4CC(=O)O)cc3)CC2)n1 [Example 53, 2-((4S,5S)-1-(4-((1-(6-methoxypyrazin-2-yl)piperidin-4-yl)oxy)phenyl)-4-methyl-3-(trifluoromethyl)-4,5-dihydro-1H-pyrazol-5-yl)acetic acid]
6250	C[C@@H]1C(C(F)(F)F)=NN(c2ccc(OC3CCN(c4cnc(Cl)cn4)CC3)cc2)[C@H]1CC(=O)O [Example 55, 2-((4S,5S)-1-(4-((1-(5-chloropyrazin-2-yl)piperidin-4-yl)oxy)phenyl)-4-methyl-3-(trifluoromethyl)-4,5-dihydro-1H-pyrazol-5-yl)acetic acid]
6410	COc1ccc(F)c(N2C(=O)[C@H]3C[C@@H]2CC3Oc2ccc(N3N=C(C(F)(F)F)[C@@H](C)[C@@H]3CC(=O)O)cc2)c1 (stereo partly drawn) [Example 67, 2-((4S,5S)-1-(4-(((1R,4S)-2-(2-fluoro-5-methoxyphenyl)-3-oxo-2-azabicyclo[2.2.1]heptan-5-yl)oxy)phenyl)-4-methyl-3-(trifluoromethyl)-4,5-dihydro-1H-pyrazol-5-yl)acetic acid]
5040	COc1ccc(F)c(N2C(=O)[C@@H]3C[C@H]2CC3Oc2ccc(N3N=C(C(F)(F)F)[C@@H](C)[C@@H]3CC(=O)O)cc2)c1 (stereo partly drawn) [Example 68, 2-((4S,5S)-1-(4-(((1S,4R)-2-(2-fluoro-5-methoxyphenyl)-3-oxo-2-azabicyclo[2.2.1]heptan-5-yl)oxy)phenyl)-4-methyl-3-(trifluoromethyl)-4,5-dihydro-1H-pyrazol-5-yl)acetic acid]
847	COc1ccc(F)c(N2C[C@H]3C[C@@H]2CC3Oc2ccc(N3N=C(C(F)(F)F)[C@@H](C)[C@@H]3CC(=O)O)cc2)c1 (stereo partly drawn) [Example 69, 2-((4S,5S)-1-(4-(((1R,4R)-2-(2-fluoro-5-methoxyphenyl)-2-azabicyclo[2.2.1]heptan-5-yl)oxy)phenyl)-4-methyl-3-(trifluoromethyl)-4,5-dihydro-1H-pyrazol-5-yl)acetic acid]
1000	COc1ccc(F)c(N2C[C@@H]3C[C@H]2CC3Oc2ccc(N3N=C(C(F)(F)F)[C@@H](C)[C@@H]3CC(=O)O)cc2)c1 (stereo partly drawn) [Example 70, 2-((4S,5S)-1-(4-(((1S,4S)-2-(2-fluoro-5-methoxyphenyl)-2-azabicyclo[2.2.1]heptan-5-yl)oxy)phenyl)-4-methyl-3-(trifluoromethyl)-4,5-dihydro-1H-pyrazol-5-yl)acetic acid]
1570	CCOc1ccc(F)c(N2CCC(Oc3ccc(N4N=C(c5ccc(C#N)c(C#N)c5)[C@@H](C)[C@@H]4CC(=O)O)cc3)CC2)c1 [Example 96, 2-((4S,5S)-3-(3,4-dicyanophenyl)-1-(4-((1-(5-ethoxy-2-fluorophenyl)piperidin-4-yl)oxy)phenyl)-4-methyl-4,5-dihydro-1H-pyrazol-5-yl)acetic acid]
3140	CCOc1cc(F)c(F)c(N2CCC(Oc3ccc(N4N=C(c5ccc(F)c(F)c5)[C@@H](C)[C@@H]4CC(=O)O)cc3)CC2)c1 [Example 97, 2-((4S,5S)-3-(3,4-difluorophenyl)-1-(4-((1-(5-ethoxy-2,3-difluorophenyl)piperidin-4-yl)oxy)phenyl)-4-methyl-4,5-dihydro-1H-pyrazol-5-yl)acetic acid]
266	COc1ccc(F)c(N2CCC(Cc3ccc(N4N=C(C(F)(F)F)[C@@H](C)[C@@H]4CC(=O)O)cc3)CC2)c1 [Example 100, 2-((4S,5S)-1-(4-((1-(2-fluoro-5-methoxyphenyl)piperidin-4-yl)methyl)phenyl)-4-methyl-3-(trifluoromethyl)-4,5-dihydro-1H-pyrazol-5-yl)acetic acid]
2480	COc1cc(N2CC[C@@H](Oc3ccc(N4N=C(C(F)(F)F)[C@@H](C)[C@@H]4CC(=O)O)cc3)[C@H](CO)C2)c(Cl)cn1 [Example B1, 2-((4S,5S)-1-(4-(((3S,4R)-1-(5-chloro-2-methoxypyridin-4-yl)-3-(hydroxymethyl)piperidin-4-yl)oxy)phenyl)-4-methyl-3-(trifluoromethyl)-4,5-dihydro-1H-pyrazol-5-yl)acetic acid]
4950	CCOc1ccc(F)c(N2CCC(Oc3ccc(N4N=C(c5ccc(C(=O)O)cc5F)[C@@H](C)[C@@H]4CC(=O)O)cc3)CC2)c1 [Example B4, 4-((4S,5S)-5-(carboxymethyl)-1-(4-((1-(5-ethoxy-2-fluorophenyl)piperidin-4-yl)oxy)phenyl)-4-methyl-4,5-dihydro-1H-pyrazol-3-yl)-3-fluorobenzoic acid]
761	COc1cccc(N2CCC(Cc3ccc(N4N=C(C(F)(F)F)[C@@H](C)[C@@H]4CC(=O)O)cc3)CC2)c1 [Example B8, 2-((4S,5S)-1-(4-((1-(3-methoxyphenyl)piperidin-4-yl)methyl)phenyl)-4-methyl-3-(trifluoromethyl)-4,5-dihydro-1H-pyrazol-5-yl)acetic acid]
2660	COc1cc(N2CCC(Cc3ccc(N4N=C(C(F)(F)F)[C@@H](C)[C@@H]4CC(=O)O)cc3)CC2)ccn1 [Example B9, 2-((4S,5S)-1-(4-((1-(2-methoxypyridin-4-yl)piperidin-4-yl)methyl)phenyl)-4-methyl-3-(trifluoromethyl)-4,5-dihydro-1H-pyrazol-5-yl)acetic acid]

Compound	EC50 [nM]
C[C@@H]1C(C(F)(F)F)=NN(c2ccc(OC3CCN(C(=O)OC(C)(C)C)CC3)cc2)[C@H]1CC(=O)O [Example 15, 2-((4S,5S)-1-(4-((1-(tert-butoxycarbonyl)piperidin-4-yl)oxy)phenyl)-4-methyl-3-(trifluoromethyl)-4,5-dihydro-1H-pyrazol-5-yl)acetic acid]	1720
